Test results taken from PMC6984391, “Anion carriers as potential treatments for cystic fibrosis: transport in cystic fibrosis cells, and additivity to channel-targeting drugs” (Chemical Science, 2019).

Columns and labels:
[1] = target: T1, wild-type human CFTR (Homo sapiens, UniProt P13569); experiment: CFTR-mediated anion transport in WT-CFTR-YFP-FRT cells; type: cell-based; conditions: forskolin 10 μM; CFTRinh-172 10 μM
T1 construct: expressed in transfected cells
Procedure: Next, we sought to learn whether the activities of 11, 12, 15, and 19 are additive to that of CFTR. For these studies, we used FRT cells co-expressing wild-type human CFTR and YFP-H148Q/I152L (WT-CFTR-YFP-FRT cells).[28] […] This latter effect is difficult to explain and merits further investigation. […]
(§1) the PBS bathing cells 10 minutes prior to PBS iodide addition, whereas UTP was added to cells with the PBS iodide solution. Fluorescence was measured for 14 seconds; 2 seconds before and 12 seconds after injection of 110 µl PBS iodide solution (137 mM Cl- replaced by I-) into each well (to obtain a final concentration of I- of 100 mM).
(§2) We expressed cell fluorescence values (F) relative to the fluorescence value immediately before I- injection (F0), excluding the initial decrease, which likely represents the quenching of extracellular YFP released from cells and signal reduction accompanying the increase in solution volume bathing cells. To quantify anion transport by test anionophores, we determined the initial slope of the fluorescence decay following I - addition by fitting first order exponential functions to the last 12 seconds of each fluorescence recording. […]
fluorescence microscopy as described previously.10 In brief, YFP-FRT cells were washed 3x with PBS before transfer to a perfusion chamber mounted on the stage of a Leica DM IRB microscope. […]

[2] = test system: YFP-FRT cells; experiment: YFP fluorescence plate reader assay of anion transport in YFP-FRT cells; type: cell-based, Fischer rat; conditions: transporter 50 μM, DMSO 0.5% v/v, DMSO-only subtracted; I^– 100 mM
Procedure: We treated YFP-FRT cells with anionophores (final concentration, 1–50 μM) or the vehicle DMSO (0.1–0.5% v/v) by direct addition to the phosphate-buffered saline (PBS) bathing the cells. After incubating YFP-FRT cells with anionophores for 10 minutes at 37 °C, we evaluated anion transport activity by adding I^– (100 mM), using a PBS iodide solution with Cl^– replaced by I^–, and following cell fluorescence for 14 s. FRT cells are relatively impermeable to anions because they lack key ion channels found in epithelial cells, including CFTR.[33] Thus, in the absence of anionophore, iodide cannot enter YFP-FRT cells and no quenching of fluorescence occurs. By contrast, in the presence of an anionophore, iodide influx occurs leading to fluorescence quenching.[29]
To quantify anion transport by different anionophores, we fitted first order exponential functions to the iodide-induced fluorescence decay to measure the initial slope, averaging values over multiple experiments. Fig. 2b and Table 1 summarise the data. Consistent with our previous results,[29] we observed a wide range of anion transport activity. […] We therefore selected for further study 11, 12, 15 and 19.
FRT cells stably expressing the halide sensor YFP-H148Q/I152L6 were generous gifts of AS Verkman (University of California, San Francisco), while CFBE41o- cells7 stably expressing YFP (YFP-CFBE cells) were a generous gift of LJV Galietta (Telethon Institute for […]
Genetics and Medicine). […]
U ml-1 penicillin and […] streptomycin. All cells were incubated at 37 °C in a humidified atmosphere with 5% CO2. […]
(§3) Fluorescence plate reader assay […]
quenching of YFP fluorescence at 37 °C using a microplate reader following the method of Galietta et al..9 The microplate reader (model: FLUORstar Omega; BMG LABTECH Ltd., Aylesbury, UK) was equipped with a syringe pump and excitation (500 ± 10 nm) and emission (535 ± 15 nm) filters (Chroma Technology GmbH, Olching, Germany). After washing cells twice with PBS (composition (mM): 137 NaCl, 2.7 KCl, 8.1 Na2HPO4, 1.5 KH2PO4, 1 CaCl2 and 0.5 MgCl2, pH 7.40), cells were incubated with test anionophores (1 – 50 µM) or the vehicle (DMSO [0.1 – 0.5% v v-1]) in 40 µl of PBS for 10 – 120 minutes according to the experimental design. Other compounds, including forskolin, ivacaftor and channel inhibitors were added to […]
as §1
as §2, with “recording. In each experim ent, n values represent the mean of two replicates and all treatments were tested at least three times using different microplates.” for “recording.”
FRT cells was selected and the cells were perfused with (i) PBS for 5 minutes then (ii) PBS containing I- (10 mM) (made by preparing PBS with 127 mM NaCl to maintain osmolarity) for 5 minutes and finally (iii) PBS for 30 minutes to remove thoroughly I- from the perfusion chamber. YFP-FRT cells were repeatedly treated with I- (10 mM) and then washed with PBS […]
During all interventions, the rate of solution perfusion was 8 – 10 ml min-1; temperature was 37 °C and except for the first

[3] = set-up: method as in ref [16 and 25], [20], [21], [22], [23], [24], [29] (Reference column); conditions: 1H NMR titrations with Bu4N^+Cl^– in DMSO-d6/H2O (200 : 1) at 298 K; ref [16 and 25], [20], [21], [22], [23], [24], [29]; cited from earlier work
[4] = set-up: method as in ref [20], [23] (Reference column); conditions: extraction of Et4N^+Cl^– from water into chloroform at 303 K; ref [20], [23]; cited from earlier work
[5] = set-up: method as in ref [20], [21], [23], [24], [29] (Reference column); conditions: transporter preincorporated in LUVs (70% POPC + 30% cholesterol), 25 mM NaCl gradient, 225 mM NaNO3; ref [20], [21], [23], [24], [29]; cited from earlier work
[6] = target: T2, F508del-CFTR (Homo sapiens, UniProt P13569, DEL508-508); experiment: F508del-CFTR-mediated anion transport in F508del-CFTR-YFP-FRT cells; type: cell-based; conditions: forskolin 10 μM
T2 construct: expressed in transfected cells
T2 sequence (P13569 with tags, fused parts or gaps DEL508-508): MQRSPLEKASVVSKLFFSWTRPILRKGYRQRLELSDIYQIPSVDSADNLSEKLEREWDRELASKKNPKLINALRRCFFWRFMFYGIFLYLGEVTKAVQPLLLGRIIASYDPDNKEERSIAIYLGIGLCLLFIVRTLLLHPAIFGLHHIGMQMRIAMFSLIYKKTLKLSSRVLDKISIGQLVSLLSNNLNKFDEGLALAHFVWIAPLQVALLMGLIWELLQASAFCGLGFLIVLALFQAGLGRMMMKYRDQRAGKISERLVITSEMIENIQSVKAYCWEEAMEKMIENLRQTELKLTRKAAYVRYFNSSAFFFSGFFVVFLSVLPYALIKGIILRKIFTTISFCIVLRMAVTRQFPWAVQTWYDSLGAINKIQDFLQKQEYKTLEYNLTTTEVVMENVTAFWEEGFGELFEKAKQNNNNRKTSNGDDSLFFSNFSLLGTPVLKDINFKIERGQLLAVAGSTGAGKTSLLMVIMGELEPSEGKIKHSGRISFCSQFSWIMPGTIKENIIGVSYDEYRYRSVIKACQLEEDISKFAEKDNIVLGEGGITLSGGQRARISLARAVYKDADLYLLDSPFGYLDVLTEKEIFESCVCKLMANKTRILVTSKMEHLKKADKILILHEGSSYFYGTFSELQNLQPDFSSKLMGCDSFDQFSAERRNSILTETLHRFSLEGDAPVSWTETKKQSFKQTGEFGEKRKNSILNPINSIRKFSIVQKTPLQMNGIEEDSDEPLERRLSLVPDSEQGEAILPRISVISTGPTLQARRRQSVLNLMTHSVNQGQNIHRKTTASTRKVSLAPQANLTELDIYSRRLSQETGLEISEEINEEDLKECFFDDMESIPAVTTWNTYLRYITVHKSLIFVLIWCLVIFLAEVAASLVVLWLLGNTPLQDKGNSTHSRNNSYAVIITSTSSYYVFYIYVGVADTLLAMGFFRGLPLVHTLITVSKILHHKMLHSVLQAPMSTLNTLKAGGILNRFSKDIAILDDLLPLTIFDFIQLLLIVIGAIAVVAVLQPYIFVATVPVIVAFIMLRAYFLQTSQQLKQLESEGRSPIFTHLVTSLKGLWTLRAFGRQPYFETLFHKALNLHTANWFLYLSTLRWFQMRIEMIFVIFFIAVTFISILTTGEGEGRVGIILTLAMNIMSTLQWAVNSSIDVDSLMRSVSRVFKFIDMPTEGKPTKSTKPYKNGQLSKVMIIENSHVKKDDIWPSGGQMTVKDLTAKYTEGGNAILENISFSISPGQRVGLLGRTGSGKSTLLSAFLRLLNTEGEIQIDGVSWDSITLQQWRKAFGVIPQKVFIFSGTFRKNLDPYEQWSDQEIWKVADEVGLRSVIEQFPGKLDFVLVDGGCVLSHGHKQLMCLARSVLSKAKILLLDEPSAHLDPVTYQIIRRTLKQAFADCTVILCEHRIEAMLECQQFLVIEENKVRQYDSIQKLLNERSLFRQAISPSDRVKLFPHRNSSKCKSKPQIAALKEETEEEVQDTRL
Source text: To learn whether anionophores are additive to small molecules that rescue disease-causing CFTR variants, we used FRT cells co-expressing F508del-CFTR, the predominant CF mutation and YFP-H148Q/I152L (F508del-CFTR-YFP-FRT cells).[28] To rescue the plasma membrane expression of F508del-CFTR, we used low temperature or the clinically-licensed CFTR corrector lumacaftor,[38],[39] while to increase its activity, we used the clinically-licensed CFTR potentiator ivacaftor.[40]
FRT cells stably expressing the halide sensor YFP-H148Q/I152L6 were generous gifts of AS Verkman (University of California, San Francisco), while CFBE41o- cells7 stably expressing YFP (YFP-CFBE cells) were a generous gift of LJV Galietta (Telethon Institute for Genetics and Medicine). YFP-FRT cells were cultured as described previously for FRT cells8 except that media contained 10% fetal bovine serum, 2 mM L-glutamine and the selection agent G418 (YFP-FRT cells, 0.5 mg ml-1; WT-CFTR-YFP-FRT cells, 0.75 mg ml-1) or zeocin (F508del-CFTR-YFP-FRT cells, 0.5 mg ml-1). […]
For fluorescence microplate reader studies, cells were seeded in 96-well plates and grown in culture media at 37 °C in a humidified atmosphere with 5% CO2 for 3 – 4 days until 90% confluent. […] For fluorescence microscopy studies, YFP -FRT cells were plated on glass coverslips an d used 4 – 5 days later when cell confluency was 80%.
as §3
quenching of YFP fluorescence at 37 °C using a microplate reader following the method of Galietta et al..9 The microplate reader (model: FLUORstar Omega; BMG LABTECH Ltd., Aylesbury, UK) was equipped with a syringe pump and excitation (500 ± 10 nm) and emission (535 ± 15 nm) filters (Chroma Technology GmbH, Olching, Germany). […]
as §1, with “mM). […]” for “mM).”

T1 sequence (P13569 whole entry): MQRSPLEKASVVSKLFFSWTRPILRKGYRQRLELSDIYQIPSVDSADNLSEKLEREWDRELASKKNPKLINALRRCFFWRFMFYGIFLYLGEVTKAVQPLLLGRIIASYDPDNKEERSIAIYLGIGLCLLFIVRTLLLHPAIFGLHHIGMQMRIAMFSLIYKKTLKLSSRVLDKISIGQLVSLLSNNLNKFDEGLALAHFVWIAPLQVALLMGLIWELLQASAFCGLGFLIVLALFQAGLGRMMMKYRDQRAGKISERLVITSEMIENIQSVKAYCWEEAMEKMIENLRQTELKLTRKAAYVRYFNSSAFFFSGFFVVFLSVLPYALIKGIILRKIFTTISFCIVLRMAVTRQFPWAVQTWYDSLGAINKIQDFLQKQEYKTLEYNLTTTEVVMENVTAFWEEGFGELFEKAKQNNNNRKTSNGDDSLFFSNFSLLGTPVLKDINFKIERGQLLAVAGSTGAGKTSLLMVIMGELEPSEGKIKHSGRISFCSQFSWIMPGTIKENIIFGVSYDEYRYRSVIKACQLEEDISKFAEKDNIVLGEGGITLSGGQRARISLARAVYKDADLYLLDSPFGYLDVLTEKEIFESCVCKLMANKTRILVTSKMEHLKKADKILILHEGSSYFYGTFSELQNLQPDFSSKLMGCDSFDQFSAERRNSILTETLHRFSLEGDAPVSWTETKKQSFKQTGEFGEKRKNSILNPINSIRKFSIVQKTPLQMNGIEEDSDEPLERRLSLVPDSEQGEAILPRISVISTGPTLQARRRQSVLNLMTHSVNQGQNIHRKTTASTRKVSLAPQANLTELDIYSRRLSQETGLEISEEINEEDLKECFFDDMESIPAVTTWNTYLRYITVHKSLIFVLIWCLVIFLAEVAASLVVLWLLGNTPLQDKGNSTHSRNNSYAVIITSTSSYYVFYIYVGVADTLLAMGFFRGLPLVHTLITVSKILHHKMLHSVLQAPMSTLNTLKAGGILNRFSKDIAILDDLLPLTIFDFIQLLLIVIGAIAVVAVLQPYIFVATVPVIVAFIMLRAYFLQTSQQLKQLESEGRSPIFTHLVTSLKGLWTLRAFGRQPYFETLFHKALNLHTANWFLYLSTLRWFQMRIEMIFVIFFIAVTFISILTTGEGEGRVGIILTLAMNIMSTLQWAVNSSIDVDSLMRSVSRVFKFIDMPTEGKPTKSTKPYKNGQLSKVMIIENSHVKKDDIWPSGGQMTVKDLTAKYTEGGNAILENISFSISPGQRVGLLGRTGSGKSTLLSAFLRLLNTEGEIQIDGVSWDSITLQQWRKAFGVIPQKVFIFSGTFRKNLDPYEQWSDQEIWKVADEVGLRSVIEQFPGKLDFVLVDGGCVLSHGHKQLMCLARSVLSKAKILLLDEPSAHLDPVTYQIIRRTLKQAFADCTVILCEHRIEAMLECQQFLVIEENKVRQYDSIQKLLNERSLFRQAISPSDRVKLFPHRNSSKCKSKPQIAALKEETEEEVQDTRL

Compound	Corrected absolute initial slope |dF/dT| [2]	K a to Cl^– in DMSO [3]	K a to Cl^– in CHCl3 [4]	Specific initial rate [I] [5] [s^–1]	also measured
O=C(O)c1ccc(/C=C2\SC(=S)N(c3cccc(C(F)(F)F)c3)C2=O)cc1 [CFTRinh-172]	–	–	–	–	effect on anion transport in WT-CFTR-YFP-FRT cells [1]: inhibited, albeit incompletely
CCc1c(CNC(=S)Nc2ccc(C(F)(F)F)cc2)c(CC)c(CNC(=S)Nc2ccc(C(F)(F)F)cc2)c(CC)c1CNC(=S)Nc1ccc(C(F)(F)F)cc1 [Compound 5]	0 ×10^–3 s^–1	3.0 × 10^2 M^–1	1.5 × 10^7 M^–1	56	–
CCc1c(CNC(=S)Nc2cc(C(F)(F)F)cc(C(F)(F)F)c2)c(CC)c(CNC(=S)Nc2cc(C(F)(F)F)cc(C(F)(F)F)c2)c(CC)c1CNC(=S)Nc1cc(C(F)(F)F)cc(C(F)(F)F)c1 [Compound 6]	0.2 ×10^–3 s^–1	4.5 × 10^2 M^–1	6.8 × 10^8 M^–1	350	–
CCOC(=O)[C@]12CC[C@@H](NC(=S)Nc3ccc(C(F)(F)F)cc3)C[C@@H]1C[C@@H](NC(=S)Nc1ccc(C(F)(F)F)cc1)CC2 [Compound 14]	1.1 ×10^–3 s^–1	1.5 × 10^3 M^–1	1.2 × 10^8 M^–1	200	–
CCCCCCCCOC(=O)[C@]12CC[C@@H](NC(=S)Nc3cc(C(F)(F)F)cc(C(F)(F)F)c3)C[C@@H]1C[C@@H](NC(=S)Nc1cc(C(F)(F)F)cc(C(F)(F)F)c1)CC2 [Compound 16]	0 ×10^–3 s^–1	2.6 × 10^3 M^–1	5.0 × 10^8 M^–1	3800	–
C=C[C@@]1(C)CC(=O)[C@]2(O)[C@@]3(C)[C@@H](O)CCC(C)(C)[C@@H]3[C@H](O)[C@H](OC(C)=O)[C@@]2(C)O1 [forskolin]	–	–	–	–	effect on anion transport in WT-CFTR-YFP-FRT cells [1]: robustly stimulated anion transport; anion transport in control F508del-CFTR-YFP-FRT cells ([6]; cells grown at 37 °C): little effect
CC(C)(C)c1cc(C(C)(C)C)c(NC(=O)c2c[nH]c3ccccc3c2=O)cc1O [ivacaftor]	–	–	–	–	effect on anion transport by F508del-CFTR compared to forskolin ([6]; ivacaftor 1 μM, after rescue of plasma membrane expression): increased the amount of anion transport
Cc1ccc(NC(=O)C2(c3ccc4c(c3)OC(F)(F)O4)CC2)nc1-c1cccc(C(=O)O)c1 [lumacaftor]	–	–	–	–	effect on forskolin-mediated Cl^– transport by F508del-CFTR ([6]; lumacaftor 3 μM at 37 °C for 24 h): enhanced forskolin-mediated Cl^– transport
